Experimental findings from patent US20240398784A1, “C-LINKED ISOQUINOLINE AMIDES AS LRRK2 INHIBITORS, PHARMACEUTICAL COMPOSITIONS, AND USES THEREOF” (Merck Sharp & Dohme LLC, priority 2021, published 2024) are described below.

In one test the target is LRRK2 G2019S (Homo sapiens, UniProt Q5S007, G2019S). Briefly: LRRK2 G2019S Km ATP LanthaScreen assay. In kind it is biochemical.
Chain of LRRK2 G2019S (Q5S007 whole entry G2019S): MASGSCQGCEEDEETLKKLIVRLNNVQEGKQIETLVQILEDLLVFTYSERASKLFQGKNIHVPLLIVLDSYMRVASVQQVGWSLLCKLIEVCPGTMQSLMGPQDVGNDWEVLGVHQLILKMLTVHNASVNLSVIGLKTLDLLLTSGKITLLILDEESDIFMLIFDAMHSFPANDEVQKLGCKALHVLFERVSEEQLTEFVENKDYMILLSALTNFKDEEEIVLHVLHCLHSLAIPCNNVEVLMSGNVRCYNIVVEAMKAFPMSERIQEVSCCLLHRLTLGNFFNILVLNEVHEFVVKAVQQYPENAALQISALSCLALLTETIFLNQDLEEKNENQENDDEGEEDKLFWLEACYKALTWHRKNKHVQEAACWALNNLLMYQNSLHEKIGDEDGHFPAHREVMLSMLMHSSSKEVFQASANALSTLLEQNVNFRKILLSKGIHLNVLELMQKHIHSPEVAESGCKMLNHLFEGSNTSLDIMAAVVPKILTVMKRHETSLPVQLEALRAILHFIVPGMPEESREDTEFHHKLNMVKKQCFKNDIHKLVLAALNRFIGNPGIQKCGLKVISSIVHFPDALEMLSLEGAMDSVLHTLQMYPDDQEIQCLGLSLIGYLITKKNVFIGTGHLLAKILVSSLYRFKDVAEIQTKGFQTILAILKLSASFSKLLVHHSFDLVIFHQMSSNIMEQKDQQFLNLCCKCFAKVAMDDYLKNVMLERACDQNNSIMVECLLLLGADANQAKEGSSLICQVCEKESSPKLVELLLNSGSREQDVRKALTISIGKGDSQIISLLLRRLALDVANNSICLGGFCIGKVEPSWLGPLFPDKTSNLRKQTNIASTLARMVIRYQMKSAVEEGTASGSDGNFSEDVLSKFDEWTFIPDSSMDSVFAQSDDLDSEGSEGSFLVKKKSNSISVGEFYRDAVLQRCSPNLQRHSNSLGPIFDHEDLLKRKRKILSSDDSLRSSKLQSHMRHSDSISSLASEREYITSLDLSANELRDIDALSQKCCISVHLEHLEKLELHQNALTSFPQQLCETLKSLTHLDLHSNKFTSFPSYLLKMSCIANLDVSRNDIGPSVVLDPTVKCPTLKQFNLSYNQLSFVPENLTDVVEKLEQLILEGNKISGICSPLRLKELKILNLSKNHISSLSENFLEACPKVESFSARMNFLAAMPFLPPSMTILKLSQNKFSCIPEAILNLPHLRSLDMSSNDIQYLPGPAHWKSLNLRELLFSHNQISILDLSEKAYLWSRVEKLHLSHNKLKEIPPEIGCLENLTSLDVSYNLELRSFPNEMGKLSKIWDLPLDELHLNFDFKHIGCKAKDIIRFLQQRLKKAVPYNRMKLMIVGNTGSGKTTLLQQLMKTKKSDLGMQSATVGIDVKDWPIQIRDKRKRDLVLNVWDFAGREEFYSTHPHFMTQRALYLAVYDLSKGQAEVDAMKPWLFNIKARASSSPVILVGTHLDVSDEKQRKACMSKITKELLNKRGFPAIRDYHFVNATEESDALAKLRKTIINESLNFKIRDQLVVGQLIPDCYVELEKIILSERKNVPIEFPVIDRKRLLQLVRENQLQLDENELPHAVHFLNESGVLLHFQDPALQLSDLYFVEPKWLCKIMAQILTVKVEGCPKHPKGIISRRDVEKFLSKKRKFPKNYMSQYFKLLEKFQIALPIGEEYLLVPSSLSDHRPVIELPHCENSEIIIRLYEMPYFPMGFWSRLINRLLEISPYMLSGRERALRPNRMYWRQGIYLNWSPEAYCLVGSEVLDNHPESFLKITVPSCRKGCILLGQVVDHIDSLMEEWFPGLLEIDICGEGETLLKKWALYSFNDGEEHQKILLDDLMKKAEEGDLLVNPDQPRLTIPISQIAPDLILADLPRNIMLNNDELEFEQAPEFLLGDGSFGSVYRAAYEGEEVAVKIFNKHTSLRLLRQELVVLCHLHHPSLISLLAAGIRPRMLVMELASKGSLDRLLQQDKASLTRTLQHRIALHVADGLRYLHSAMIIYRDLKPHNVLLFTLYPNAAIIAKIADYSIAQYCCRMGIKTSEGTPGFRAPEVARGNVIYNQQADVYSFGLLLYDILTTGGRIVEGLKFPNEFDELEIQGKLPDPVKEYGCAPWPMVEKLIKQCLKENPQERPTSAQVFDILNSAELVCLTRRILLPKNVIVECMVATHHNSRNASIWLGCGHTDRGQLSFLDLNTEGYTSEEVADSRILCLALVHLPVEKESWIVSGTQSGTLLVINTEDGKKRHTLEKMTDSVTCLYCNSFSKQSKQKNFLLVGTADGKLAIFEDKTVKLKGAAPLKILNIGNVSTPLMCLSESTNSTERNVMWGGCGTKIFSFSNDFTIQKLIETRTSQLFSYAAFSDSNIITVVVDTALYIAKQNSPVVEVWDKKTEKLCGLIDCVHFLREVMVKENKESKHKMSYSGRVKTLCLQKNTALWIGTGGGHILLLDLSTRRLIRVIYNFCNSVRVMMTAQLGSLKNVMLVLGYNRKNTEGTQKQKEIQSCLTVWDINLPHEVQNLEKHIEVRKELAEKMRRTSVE
Conditions: not given
(In general: In TR-FRET formats the signal depends on donor and acceptor labels being close together.)
`CC1(N2CCC(c3cc4cc(NC(=O)Cc5ccncc5)ncc4cc3Cl)CC2)COCC1O` (centres unmarked) [Ex-3.8]: the “LRRK2 pIC50” value is on record as 10.09.
For `O=C(Nc1cc2cc(C3CCN(C4COC4)CC3)c(Cl)cc2cn1)C1CC12CC2` (centres unmarked) [Ex-9.1], the “LRRK2 pIC50” value was determined as 8.69.
In the case of `Cn1ncc(C2CC2C(=O)Nc2cc3cc(C4CCN(C5(C)COCC5O)CC4)c(Cl)cc3cn2)n1` [Ex-20.1, (1R,2R and 1S,2S)-N-(7-chloro-6-(1-(4-hydroxy-3-methyltetrahydrofuran-3-yl)piperidin-4-yl)isoquinolin-3-yl)-2-(2-methyl-2H-1,2,3-triazol-4-yl)cyclopropane-1-carboxamide], the “LRRK2 pIC50” value came to 10.09.

The same test, now with this note: read-out: LRRK2 pIC50 (converted).
Take `CC1(c2ccccn2)CC1C(=O)Nc1cc2cc(C3CCN(C4(C)COCC4O)CC3)c(Cl)cc2cn1` (centres unmarked) [Ex-2.90]: the IC50 is 52.5 nM.
For the molecule `CC1(c2ccccn2)CC1C(=O)Nc1cc2cc(C3CCN(C4(C)COCC4O)CC3)c(Cl)cc2cn1` (centres unmarked) [Ex-2.91], the IC50 is 240 nM.
Same read-out and setting: as for `CC1(N2CCC(c3cc4cc(NC(=O)C5CC5C5CCOCC5)ncc4cc3Cl)CC2)COCC1F` (centres unmarked) [Ex-2.92], the figure is 0.0813 nM; as for `CC1(N2CCC(c3cc4cc(NC(=O)C5CCC5C#N)ncc4cc3Cl)CC2)COCC1F` (centres unmarked) [Ex-2.94], 0.0813 nM; as for `CC1(N2CCC(c3cc4cc(NC(=O)C5CC56CC6)ncc4cc3Cl)CC2)COCC1F` (centres unmarked) [Ex-2.96], 0.0813 nM.
On the same count and under the same terms, as for `CCC1C(C(=O)Nc2cc3cc(C4CC45CC5)c(Cl)cc3cn2)C1c1cnn(C)c1` (centres unmarked) [Ex-2.98], the figure is 15.5 nM; as for `CCC1C(C(=O)Nc2cc3cc(C4CC45CC5)c(Cl)cc3cn2)C1c1cnn(C)c1` (centres unmarked) [Ex-2.99], 117 nM; as for `CC(C(=O)Nc1cc2cc(C3CCN(C4(C)CCOC4O)CC3)c(Cl)cc2cn1)C1CCOCC1` (centres unmarked) [Ex-2.104], 0.661 nM.
In the case of `CC(C(=O)Nc1cc2cc(C3CCN(C4(C)COCC4O)CC3)c(Cl)cc2cn1)c1cnn(C)c1` (centres unmarked) [Ex-2.106], the IC50 was 0.288 nM.
In the case of `CC(C(=O)Nc1cc2cc(C3CCN(C4(C)COCC4O)CC3)c(Cl)cc2cn1)c1cnn(C)c1` (centres unmarked) [Ex-2.107], the IC50 was 0.661 nM.
Regarding `CC(C(=O)Nc1cc2cc(C3(C#N)CC34CC4)ccc2cn1)c1cnn(C)c1` (centres unmarked) [Ex-2.108], the IC50 is 2.95 nM.
For the molecule `CC(C(=O)Nc1cc2cc(C3(C#N)CC34CC4)ccc2cn1)c1cnn(C)c1` (centres unmarked) [Ex-2.109], the IC50 is 1.91 nM.
`CC(C(=O)Nc1cc2cc(C3(C#N)CC34CC4)ccc2cn1)c1cnn(C)c1` (centres unmarked) [Ex-2.110]: the IC50 is 0.575 nM.
As for `CC(C(=O)Nc1cc2cc(C3(C#N)CC34CC4)ccc2cn1)c1cnn(C)c1` (centres unmarked) [Ex-2.111], the IC50 was 2.24 nM.
Same read-out and setting: as for `CCC(=O)N1CCC(C(C)C(=O)Nc2cc3cc(C4(C#N)CC45CC5)ccc3cn2)CC1` (centres unmarked) [Ex-2.112], the figure is 135 nM.
Turning to `CCC(=O)N1CCC(C(C)C(=O)Nc2cc3cc(C4(C#N)CC45CC5)ccc3cn2)CC1` (centres unmarked) [Ex-2.113], the IC50 is 28.2 nM.
Same read-out and setting: as for `CC1(N2CCC(c3cc4cc(NC(=O)[C@H]5CCCO5)ncc4cc3Cl)CC2)COCC1O` (some centres unmarked) [Ex-3.2], the figure is 1.15 nM; as for `CC1(N2CCC(c3cc4cc(NC(=O)C5(Cn6ccnc6)CC5)ncc4cc3Cl)CC2)COCC1O` (centres unmarked) [Ex-3.3], 3.31 nM; as for `CC1(N2CCC(c3cc4cc(NC(=O)C5CC5F)ncc4cc3Cl)CC2)COCC1O` (centres unmarked) [Ex-3.4], 1.55 nM.
Regarding `Cn1cc(C(=O)Nc2cc3cc(C4CCN(C5COCC5O)CC4)c(Cl)cc3cn2)cn1` (centres unmarked) [Ex-3.5], the IC50 was 0.631 nM.
Still for that read-out and setting: as for `CC1(N2CCC(c3cc4cc(NC(=O)Cc5ccccn5)ncc4cc3Cl)CC2)COCC1O` (centres unmarked) [Ex-3.6], the figure is 0.24 nM; as for `CC1(N2CCC(c3cc4cc(NC(=O)Cc5cccnc5)ncc4cc3Cl)CC2)COCC1O` (centres unmarked) [Ex-3.7], 0.0813 nM; as for `CC1(N2CCC(c3cc4cc(NC(=O)Cn5cc(Cl)cn5)ncc4cc3Cl)CC2)COCC1O` (centres unmarked) [Ex-3.9], 0.977 nM.
`CC1(N2CCC(c3cc4cc(NC(=O)Cn5ccc(C(F)(F)F)n5)ncc4cc3Cl)CC2)COCC1O` (centres unmarked) [Ex-3.10]: the IC50 is 1 nM.
Regarding `CC1(N2CCC(c3cc4cc(NC(=O)Cc5cnn(C(F)F)c5)ncc4cc3Cl)CC2)COCC1O` (centres unmarked) [Ex-3.11], the IC50 was 0.631 nM.
For `Cn1cc(CC(=O)Nc2cc3cc(C4CCN(C5(C)COCC5O)CC4)c(Cl)cc3cn2)c(Cl)n1` (centres unmarked) [Ex-3.12], the IC50 is 0.251 nM.
Turning to `CC(=O)Nc1cc2cc(C3CCN(C4COC4)CC3)c(Cl)cc2cn1` [Ex-7.1, N-(7-chloro-6-(1-(oxetan-3-yl)piperidin-4-yl)isoquinolin-3-yl)acetamide], the IC50 was 11.5 nM.
Same read-out and setting: as for `CC1(C(=O)Nc2cc3cc(C4CCN(C5COC5)CC4)c(Cl)cc3cn2)CC1` [Ex-7.3, N-(7-chloro-6-(1-(oxetan-3-yl)piperidin-4-yl)isoquinolin-3-yl)-1-methylcyclopropane-1-carboxamide], the figure is 16.6 nM; as for `O=C(Nc1cc2cc(C3CCN(C4COC4)CC3)c(Cl)cc2cn1)C1CCC1` [Ex-7.4, N-(7-chloro-6-(1-(oxetan-3-yl)piperidin-4-yl)isoquinolin-3-yl)cyclobutanecarboxamide], 5.89 nM.
In the case of `O=C(Nc1cc2cc(C3CCN(C4COC4)CC3)c(Cl)cc2cn1)C1CCCC1` [Ex-7.5, N-(7-chloro-6-(1-(oxetan-3-yl)piperidin-4-yl)isoquinolin-3-yl)cyclopentanecarboxamide], the IC50 was 5.5 nM.
Same read-out and setting: as for `O=C(Nc1cc2cc(C3CCN(C4COC4)CC3)c(Cl)cc2cn1)C1CC1` [Ex-7.6, N-(7-chloro-6-(1-(oxetan-3-yl)piperidin-4-yl)isoquinolin-3-yl)cyclopropanecarboxamide], the figure is 2.14 nM.
With `CC1(N2CCC(c3cc4cc(NC(=O)C56CC(C5)C6)ncc4cc3Cl)CC2)COC1` [Ex-7.7, N-(7-chloro-6-(1-(3-methyloxetan-3-yl)piperidin-4-yl)isoquinolin-3-yl)bicyclo[1.1.1]pentane-1-carboxamide], the IC50 is 9.12 nM.
Consider `O=C(Nc1cc2cc(C3CCN(C4COC4)CC3)c(Cl)cc2cn1)C1(F)CC1` [Ex-7.8, N-(7-chloro-6-(1-(oxetan-3-yl)piperidin-4-yl)isoquinolin-3-yl)-1-fluorocyclopropane-1-carboxamide], for which the IC50 is 9.12 nM.
Consider `O=C(Nc1cc2cc(C3CCOCC3)c(Cl)cc2cn1)C1CC12CCOCC2` (centres unmarked) [Ex-7.10, N-(7-chloro-6-(tetrahydro-2H-pyran-4-yl)isoquinolin-3-yl)-6-oxaspiro[2.5]octane-1-carboxamide], for which the IC50 was 2.75 nM.
Same read-out and setting: as for `CCC1C(C(=O)Nc2cc3cc(C4CC(C#N)C4)c(Cl)cc3cn2)C1c1cnn(C)c1` (centres unmarked) [Ex-9.17, N-(7-chloro-6-(3-cyanocyclobutyl)isoquinolin-3-yl)-2-ethyl-3-(1-methyl-1H-pyrazol-4-yl)cyclopropane-1-carboxamide], the figure is 33.1 nM; as for `CCC1C(C(=O)Nc2cc3cc(C4CC(C#N)C4)c(Cl)cc3cn2)C1c1cnn(C)c1` (centres unmarked) [Ex-9.18, N-(7-chloro-6-(3-cyanocyclobutyl)isoquinolin-3-yl)-2-ethyl-3-(1-methyl-1H-pyrazol-4-yl)cyclopropane-1-carboxamide], 22.4 nM.
`O=C(Nc1cc2cc(C3CCN(C4CS(=O)(=O)C4)CC3)c(Cl)cc2cn1)C1CC1` [Ex-13.5]: the IC50 was 4.17 nM.
On the same count and under the same terms, as for `CC1(N2CCC(c3cc4cc(NC(=O)C5CC5)ncc4cc3Cl)C(F)C2)COC1` (centres unmarked) [Ex-14.3, N-(7-chloro-6-(3-fluoro-1-(3-methyloxetan-3-yl)piperidin-4-yl)isoquinolin-3-yl)cyclopropanecarboxamide], the figure is 0.589 nM.
In the case of `Cc1cc2cnc(NC(=O)C3CC3)cc2cc1C1CCN(C2(C)COC2)CC1` [Ex-15.1], the IC50 is 3.24 nM.
`N#CC1(c2ccc3cnc(NC(=O)C4CC4)cc3c2)CC1` [Ex-17.1]: the IC50 was 19.1 nM.
The same measure, in the same setting: as for `N#CC1(c2ccc3cnc(NC(=O)C4CC4)cc3c2)CCC1` [Ex-17.2], the figure is 14.5 nM; as for `CC(C)c1cc2cc(NC(=O)C3CC3c3cnn(C)c3)ncc2cc1Cl` (centres unmarked) [Ex-21.1, N-(7-chloro-6-isopropylisoquinolin-3-yl)-2-(1-methyl-1H-pyrazol-4-yl)cyclopropane-1-carboxamide], 0.0813 nM.
On to `C[C@@]1(N2CC[C@@H](c3cc4cc(NC(=O)[C@H]5CC56CC6)ncc4cc3Cl)[C@H](F)C2)COC[C@@H]1O` [Ex-23.1, (S)-N-(7-chloro-6-((3S,4S)-3-fluoro-1-((3R,4R)-4-hydroxy-3-methyltetrahydrofuran-3-yl)piperidin-4-yl)isoquinolin-3-yl)spiro[2.2]pentane-1-carboxamide], for which the IC50 is 0.0813 nM.
For the molecule `C[C@@]1(N2CC[C@@H](c3cc4cc(NC(=O)[C@@H]5CC56CC6)ncc4cc3Cl)[C@H](F)C2)COC[C@@H]1O` [Ex-23.2, (R)-N-(7-chloro-6-((3S,4S)-3-fluoro-1-((3R,4R)-4-hydroxy-3-methyltetrahydrofuran-3-yl)piperidin-4-yl)isoquinolin-3-yl)spiro[2.2]pentane-1-carboxamide], the IC50 is 0.0813 nM.
